Results published in patent US10654834B2 (Venenum Biodesign, LLC, priority 2016, dated 2020).
Where a name gives a salt, the structure may show the parent alone.

Experiments:
[1] = molecular target: T1, human TGR5 receptor (Homo sapiens, UniProt Q8TDU6); assay: Human TGR5 cAMP production assay (hTGR5-CHO cells, DiscoveRx cAMP XS+ kit); format: cell-based; settings: luminescent cAMP assay, read-out: Human TGR5 Lum. cAMP Activity (EC50)
T1 construct: host or cells: CHO-K1 (hTGR5-CHO)
T1 sequence (Q8TDU6 1-330): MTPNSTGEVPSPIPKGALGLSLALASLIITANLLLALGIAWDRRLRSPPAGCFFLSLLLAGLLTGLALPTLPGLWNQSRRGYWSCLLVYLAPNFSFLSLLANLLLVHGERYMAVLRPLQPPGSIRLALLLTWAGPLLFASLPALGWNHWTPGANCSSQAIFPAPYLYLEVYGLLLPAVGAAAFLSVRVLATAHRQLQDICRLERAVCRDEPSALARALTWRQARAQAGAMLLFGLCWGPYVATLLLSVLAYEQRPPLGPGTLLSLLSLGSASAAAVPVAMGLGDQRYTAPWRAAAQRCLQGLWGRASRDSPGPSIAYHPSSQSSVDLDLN
Method: Human TGR5 cAMP Production Assay
Compounds of the present invention were evaluated for their ability to induce cAMP production using CHO-K1 cells overexpressing the human TGR5 receptor.
CHO-K1 cells stably expressing human TGR5 receptor (accession number NM_001077194.1) (hTGR5) (i.e., hTGR5-CHO cells) were purchased from DiscoveRx Corporation (Fremont, Calif.). hTGR5-CHO cells were grown in Ham's F-12 media supplemented with 10% Fetal Bovine Serum, 1% Penicillin-Streptomycin, 2 mM L-Alanine L-Glutamine (Glutamax), and 800 μg/mL Geneticin selection. The cAMP production assay was performed using DiscoveRx's cAMP XS+ kit (Catalog No. 90-0075XL) following the manufacturer's recommended protocol. Briefly, hTGR5-CHO cells were harvested using non-enzymatic cell dissociation buffer (Sigma-Aldrich, St. Louis, Mo.) and 1×10^6 cells were combined in Phosphate-Buffered Saline (PBS) to a final volume of 496 μL to which 4 μL of 125 mM IBMX (Sigma-Aldrich, St. Louis, Mo.) was added. 500 μL of cAMP antibody solution was added to the harvested cells and incubated at room temperature for 20 min.
Test compounds were serially diluted (half-log dilutions) in DMSO and then further diluted 1:50 in PBS, 10 mM HEPES buffer. 2 μL of serially diluted compound was added to a 384-well low volume plate (Greiner; cat #784075) and centrifuged briefly. 2 μl of the cell/cAMP antibody mixture was then added to each compound-containing well and allowed to incubate at room temperature for one hour. Following incubation, the XS+ kits' ED/Lysis/CL Substrate Working Solution was prepared following the manufacturer's recommended protocol and 4 μL was added to each well of the plate. The plate was then incubated for one hour at room temperature. Following incubation, 4 μL of Enzyme Acceptor reagent was added to the plate and allowed to incubate overnight at room temperature. Luminescent signal was then detected using the Viewlux instrument (Perkin-Elmer, Waltham, Mass.).
Human and Mouse TGR5 cAMP
(§1) In Table 52, EC50 values for both human and mouse cells were determined according to the TGR5 cAMP assays described above. […]

[2] = molecular target: T2, mouse TGR5 receptor (Mus musculus, UniProt Q80SS6); assay: Mouse TGR5 HTRF cAMP production assay (HEK293-EBNA cells, Cisbio cAMP HiRange kit); format: cell-based; settings: HEK293-EBNA cells overexpressing mouse TGR5, HTRF cAMP assay
T2 construct: host or cells: HEK293-EBNA (293 c18, ATCC CRL10852)
T2 sequence (Q80SS6 1-329): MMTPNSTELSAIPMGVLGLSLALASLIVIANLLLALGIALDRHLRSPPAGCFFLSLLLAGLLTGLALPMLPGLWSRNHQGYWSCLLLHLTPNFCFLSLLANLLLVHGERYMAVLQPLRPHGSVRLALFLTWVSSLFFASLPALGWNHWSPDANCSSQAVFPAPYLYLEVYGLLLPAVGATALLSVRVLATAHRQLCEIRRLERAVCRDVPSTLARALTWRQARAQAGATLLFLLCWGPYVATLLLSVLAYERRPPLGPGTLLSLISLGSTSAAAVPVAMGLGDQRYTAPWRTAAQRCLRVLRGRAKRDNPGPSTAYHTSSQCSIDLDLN
Method: Mouse TGR5 cAMP Production Assay
Compounds of the present invention were evaluated for their ability to induce cAMP production in HEK-EBNA cells overexpressing the mouse TGR5 receptor. Human embryonic kidney cells (HEK293-EBNA) stably expressing mouse TGR5 receptor were established using the following procedure. Specifically, a commercially obtained gene encoding mouse TGR5 (accession number BC116914) from Thermo Scientific (Waltham, Mass.) was cloned into an episomal expression vector. The resulting expression plasmid was then transfected into 293 c18 (ATCC® CRL10852™) cells, which express the Epstein-Barr virus nuclear antigen EBNA1 and can support the replication of episomal vectors. Selection for the plasmid was maintained with Hygromycin B. Cells were cultured and maintained in DMEM (Sigma; cat #6429) supplemented with 10% Fetal Bovine Serum, 1% penicillin/streptomycin, 2 mM L-alanine L-glutamine (GlutaMax), and 250 μg/mL Hygromycin.
We developed two cAMP production assays.
(ii) HTRF cAMP Production Assay
In this second cAMP production assay, the cAMP production was measured in 384-well low volume plates (Greiner; cat #784075) using the Cisbio™ cAMP HiRange HTRF Assay Kit (CisBio) according to the manufacturer's protocol.
Briefly, compounds were initially diluted in 100% DMSO (12-point serial dilution by half logs) in a 96-well plate and then were further diluted 1:50 in PBS containing 10 mM HEPES. 5 μL were transferred to the 384-well assay plate in duplicate. HEK293-EBNA cells stably overexpressing mouse TGR5 were harvested using non-enzymatic cell dissociation buffer (Sigma), spun down, then resuspended in serum-free DMEM with 500 μM IBMX at a density of 500,000 cells/mL. 5 μL of cell suspension was transferred to each well of the 384-well assay plate already containing compound. The plate was covered and incubated at room temperature for 1 hour. The d2-cAMP and anti-cAMP Ab-cryptate stock solutions were prepared as per kit instructions. Then 5 μL of each conjugate (d2 and cryptate) were added to each well of the assay plate. The plate was covered and incubated at room temperature for one (1) hour. The plate was read on an Envision™ plate reader (PerkinElmer).
as §1

| EC50 [1] [nM] | EC50 [2] [nM] | SMILES |
| --- | --- | --- |
| 100 to 999 | < 100 | O=C(CCCC1CCN(c2cc(N3CCC[C@@H](C(=O)NCCc4ccc(C(F)(F)F)cc4)C3)nc(C(F)(F)F)n2)CC1)NCCS(=O)(=O)O [Compound 336, (R)-2-(4-(1-(2-(trifluoromethyl)-6-(3-((4-(trifluoromethyl)phenethyl)carbamoyl)-piperidin-1-yl)pyrimidin-4-yl)piperidin-4-yl)butanamido)ethanesulfonic acid] |
| < 100 | < 100 | N#Cc1ccc(CCNC(=O)[C@@H]2CCCN2c2cc(N3CCC(CCCC(=O)N[C@@H](CCCNC(=N)N)C(=O)O)CC3)cc(C(F)(F)F)n2)cc1 [Compound 200, (S)-2-(4-(1-(2-((S)-2-((4-cyanophenethyl)carbamoyl)pyrrolidin-1-yl)-6-(trifluoromethyl)pyridin-4-yl)piperidin-4-yl)butanamido)-5-guanidinopentanoic acid] |
| 100 to 999 | < 100 | N#Cc1ccc(CCNC(=O)[C@@H]2CCCN2c2cc(N3CCC(CCCNC(=O)NCS(=O)(=O)O)CC3)cc(C(F)(F)F)n2)cc1 [Compound 201, (S)-(3-(3-(1-(2-(2-((4-cyanophenethyl)carbamoyl)pyrrolidin-1-yl)-6-(trifluoromethyl)pyridin-4-yl)piperidin-4-yl)propyl)ureido)methanesulfonic acid] |
| 100 to 999 | < 100 | O=C(O)C(=O)N1CCN(c2cc(N3CCC[C@@H](C(=O)NCCc4ccc(C(F)(F)F)cc4)C3)nc(C(F)(F)F)n2)CC1 [Compound 340, (R)-2-oxo-2-(4-(2-(trifluoromethyl)-6-(3-((4-(trifluoromethyl)phenethyl)-carbamoyl)piperidin-1-yl)pyrimidin-4-yl)piperazin-1-yl)acetic acid] |
| < 100 | < 100 | N#Cc1ccc(CCNC(=O)[C@@H]2CCCN2c2cc(N3CCC(CCCC(=O)NCCNC(=O)CS(=O)(=O)O)CC3)nc(C(F)(F)F)n2)cc1 [Compound 124, (S)-2-((2-(4-(1-(6-(2-((4-cyanophenethyl)carbamoyl)pyrrolidin-1-yl)-2-(trifluoromethyl)pyrimidin-4-yl)piperidin-4-yl)butanamido)-ethyl)amino)-2-oxoethanesulfonic acid] |
| < 100 | < 100 | CN(CCS(=O)(=O)O)C(=O)CCC1CCN(c2cc(N3CC[C@H]3C(=O)NCCc3ccc(C(F)(F)F)cc3)nc(C(F)(F)F)n2)CC1 [Compound 252, (S)-2-(N-methyl-3-(1-(2-(trifluoromethyl)-6-(2-((4-(trifluoromethyl)phenethyl)carbamoyl)azetidin-1-yl)pyrimidin-4-yl)piperidin-4-yl)propanamido)ethanesulfonic acid] |
| < 100 | < 100 | N#Cc1ccc(CCNC(=O)[C@@H]2CCCN2c2cc(N3CCC(CCNc4c(NCCS(=O)(=O)NCC(=O)O)c(=O)c4=O)CC3)nc(C(F)(F)F)n2)cc1 [Compound 370, (S)-2-(2-((2-((2-(1-(6-(2-((4-cyanophenethyl)carbamoyl)pyrrolidin-1-yl)-2-(trifluoromethyl)pyrimidin-4-yl)piperidin-4-yl)ethyl)amino)-3,4-dioxocyclobut-1-en-1-yl)amino)ethylsulfonamido)acetic acid] |
| < 100 | < 100 | NCCNC(=O)CCCC1CCN(c2cc(N3CCC[C@H]3C(=O)NCCc3ccc(C(F)(F)F)cc3)nc(C(F)(F)F)n2)CC1 [Compound 90, (S)-1-(6-(4-(4-((2-aminoethyl)amino)-4-oxobutyl)piperidin-1-yl)-2-(trifluoromethyl)pyrimidin-4-yl)-N-(4-(trifluoromethyl)phenethyl)pyrrolidine-2-carboxamide hydrochloride] |
| < 100 | < 100 | COC(=O)[C@@H](N)CCCCNC(=O)NCCC1CCN(c2cc(N3CC[C@H]3C(=O)NCCc3ccc(C#N)cc3)nc(C(F)(F)F)n2)CC1 [Compound 274, (S)-methyl 2-amino-6-(3-(2-(1-(6-((S)-2-((4-cyanophenethyl)carbamoyl)azetidin-1-yl)-2-(trifluoromethyl)pyrimidin-4-yl)piperidin-4-yl)ethyl)ureido)hexanoate] |
| < 100 | < 100 | N[C@@H](CCC(=O)NCCCC1CCN(c2cc(N3CCC[C@H]3C(=O)NCCc3ccc(C(F)(F)F)cc3)nc(C(F)(F)F)n2)CC1)C(=O)O [Compound 77, (S)-2-amino-5-oxo-5-((3-(1-(2-(trifluoromethyl)-6-((S)-2-((4-(trifluoromethyl)phenethyl)carbamoyl)pyrrolidin-1-yl)pyrimidin-4-yl)piperidin-4-yl)propyl)amino)pentanoic acid] |
| 1000 to 30000 | 100 to 999 | COC(=O)C(=O)N1CCN(c2cc(N3CCC[C@@H](C(=O)NCCc4ccc(C(F)(F)F)cc4)C3)nc(C(F)(F)F)n2)CC1 [Compound 339, (R)-methyl 2-oxo-2-(4-(2-(trifluoromethyl)-6-(3-((4-(trifluoromethyl)phenethyl)-carbamoyl)piperidin-1-yl)pyrimidin-4-yl)piperazin-1-yl)acetate] |
| 100 to 999 | 100 to 999 | Cc1ccsc1-c1cc(N2CCC[C@H]2C(=O)NCCc2ccc(C#N)cc2)nc(C(F)(F)F)n1 [Compound 172, (S)-N-(4-cyanophenethyl)-1-(6-(3-methylthiophen-2-yl)-2-(trifluoromethyl)pyrimidin-4-yl)pyrrolidine-2-carboxamide] |
| 100 to 999 | < 100 | O=C(O)CCNC(=O)NCCC1CCN(c2cc(N3CCC[C@H]3C(=O)NCCc3ccc(-c4ccncc4)cc3)nc(C(F)(F)F)n2)CC1 [Compound 376, (S)-3-(3-(2-(1-(6-(2-((4-(pyridin-4-yl)phenethyl)carbamoyl)pyrrolidin-1-yl)-2-(trifluoromethyl)pyrimidin-4-yl)piperidin-4-yl)ethyl)ureido)propanoic acid] |
| 100 to 999 | < 100 | N#Cc1ccc(CCNC(=O)[C@@H]2CCN2c2cc(N3CCN(CCO)CC3)nc(C(F)(F)F)n2)cc1 [Compound 224, (S)-N-(4-cyanophenethyl)-1-(6-(4-(2-hydroxyethyl)piperazin-1-yl)-2-(trifluoromethyl)pyrimidin-4-yl)azetidine-2-carboxamide] |
